The values below come from ChEMBL document CHEMBL5120880, “Peptidomimetics: An Overview of Recent Medicinal Chemistry Efforts toward the Discovery of Novel Small Molecule Inhibitors” (J Med Chem, 2022).

Molecules are shown by their SMILES. In brackets after ≈: the same amount, converted by molar mass.

Assay [1] relates to Escherichia coli. Nature of the assay: Antimicrobial activity against Escherichia coli KCTC 1682 assessed as minimal inhibitory concentration incubated for 18 hrs. It counts as functional.
Assay [2] deals with Pseudomonas aeruginosa. Nature of the assay: Antimicrobial activity against Pseudomonas aeruginosa KCTC 1637 assessed as minimal inhibitory concentration incubated for 18 hrs. Format: functional.
Assay [3] has as its system Staphylococcus aureus. Briefly: Antimicrobial activity against Staphylococcus aureus KCTC 1621 assessed as minimal inhibitory concentration incubated for 18 hrs. It counts as functional.
The test system of assay [4] is Staphylococcus epidermidis. Briefly: Antimicrobial activity against Staphylococcus epidermidis KCTC 1917 assessed as minimal inhibitory concentration incubated for 18 hrs. It counts as functional.
Assay [5] relates to Escherichia coli. Briefly: Antibacterial activity against Escherichia coli assessed as minimal inhibitory concentration incubated for 24 hrs. It counts as functional.
The subject of assay [6] is Salmonella enterica. Briefly: Antibacterial activity against Salmonella enterica assessed as minimal inhibitory concentration incubated for 24 hrs. Format: functional.
The test system of assay [7] is Staphylococcus aureus. Briefly: Antibacterial activity against Staphylococcus aureus assessed as minimal inhibitory concentration incubated for 24 hrs. It counts as functional.
The test system of assay [8] is Bacillus subtilis. Nature of the assay: Antibacterial activity against Bacillus subtilis assessed as minimal inhibitory concentration incubated for 72 hrs. It counts as functional.
Assay [9] has as its system Staphylococcus aureus. Briefly: Antibacterial activity against Staphylococcus aureus MRSA assessed as minimal inhibitory concentration incubated for 24 hrs. Format: functional.
For assay [10], the system named is Middle East respiratory syndrome-related coronavirus. Nature of the assay: microbe, parasite or virus in culture.
In assay [11] the test system is SARS-CoV-2. Nature of the assay: microbe, parasite or virus in culture. The note with it: Severe acute respiratory syndrome coronavirus 2.
In assay [12] the test system is Murine hepatitis virus. Briefly: microbe, parasite or virus in culture. The note with it: Murine coronavirus.
For assay [13], the system named is Feline infectious peritonitis virus. Briefly: microbe, parasite or virus in culture. The note with it: Alphacoronavirus 1.
For assay [14], the system named is SARS-CoV. Briefly: microbe, parasite or virus in culture. The note with it: Severe acute respiratory syndrome-related coronavirus.
Assay [15] deals with Escherichia coli. Briefly: Antibacterial activity against Escherichia coli BW25113 assessed as minimal inhibitory concentration by microdilution assay. Format: functional. Background: In broth dilution the organism is exposed to a series of concentrations in liquid medium.
In assay [16] the test system is Salmonella typhimurium. Briefly: Antibacterial activity against Salmonella typhimurium TA100 assessed as minimal inhibitory concentration by microdilution assay. Format: functional, Salmonella enterica subsp. enterica serovar Typhimurium. The note with it: Salmonella enterica.
In assay [17] the test system is Bacillus subtilis. Nature of the assay: Antibacterial activity against Bacillus subtilis DSM10 assessed as minimal inhibitory concentration by microdilution assay. It counts as functional.
The subject of assay [18] is Mycolicibacterium phlei. Briefly: Antibacterial activity against Mycobacterium phlei DSM750 assessed as minimal inhibitory concentration by microdilution assay. It counts as functional.

For orientation: MIC means the least concentration at which growth counts as inhibited. Consider `CC(=O)NCCNc1nc(NCC(=O)NCCNc2nc(NCC(N)=O)nc(N(Cc3ccccc3)Cc3ccccc3)n2)nc(N(CCCN)CCCN)n1`, for which the MIC is 64 µg/mL (≈ 82.9 µM) in assay [1], 32 µg/mL (≈ 41.5 µM) in [2], 32 µg/mL (≈ 41.5 µM) in [3] and 32 µg/mL (≈ 41.5 µM) in assay [4].
On to `CCCCCCCCCCCCCCCCNC(=O)[C@@H](N)Cc1ccccc1`, for which the MIC in [5] is 1250 µg/mL (≈ 3220 µM); in [6] it was 625 µg/mL (≈ 1610 µM); in assay [7], 1250 µg/mL (≈ 3220 µM); in assay [8], 625 µg/mL (≈ 1610 µM); in assay [9] it was 1250 µg/mL (≈ 3220 µM).
Broadly, the IC50 is the midpoint of a concentration-inhibition curve. For orientation: EC50 means the concentration that produces a half-maximal response. With `CCCC1CCC(OC(=O)N[C@@H](CC(C)C)C(=O)N[C@@H](C[C@H]2CCNC2=O)C(O)S(=O)(=O)O)CC1` (stereo partly specified), the results for the IC50 in [10] and in assay [11] were 100 nM and 1600 nM, respectively. Also, the EC50 was 160 nM in assay [12] and 170 nM in assay [13].
For `CC(C)C[C@H](NC(=O)OCC1CCC(F)(F)CC1)C(=O)N[C@@H](C[C@H]1CCNC1=O)C(O)S(=O)(=O)O` (stereo partly specified), the IC50 in assay [10] amounted to 100 nM; in [14], 1100 nM; in assay [11], 1100 nM. In addition, the 50% effective concentration (EC50) in [12] was 160 nM; in [13], 70 nM.
For the compound `COc1c(/C=C(\F)c2ccc(NC(=O)[C@H](CC#N)NC(=O)c3ccc(NC(=O)/C(C)=C/c4ccc(O)cc4)cc3)cc2)ccc(C(=O)Nc2ccc(C(=O)O)c(O)c2OC)c1O`, the MIC is below 0.063 µg/mL in [15], 0.031 µg/mL (≈ 0.0367 µM) in assay [16], 0.031 µg/mL (≈ 0.0367 µM) in [17] and 0.25 µg/mL (≈ 0.296 µM) in assay [18].
Consider `CC(=O)NCCNc1nc(NCC(=O)NCCNc2nc(NCC(=O)NCCNc3nc(NCC(N)=O)nc(N(Cc4ccccc4)Cc4ccccc4)n3)nc(N(CCCN)CCCN)n2)nc(N(Cc2ccccc2)Cc2ccccc2)n1`, for which the MIC in [1] was determined as 128 µg/mL (≈ 110 µM); in assay [2], 32 µg/mL (≈ 27.6 µM); in assay [3], 64 µg/mL (≈ 55.1 µM); in assay [4], 64 µg/mL (≈ 55.1 µM).
Take `CCCCCCCCCCCCNC(=O)[C@@H](N)C(C)CC` (stereo partly specified): the MIC worked out at 2 µg/mL (≈ 6.7 µM) in [5]; 5 µg/mL (≈ 16.7 µM) in [6]; 2.5 µg/mL (≈ 8.37 µM) in assay [7]; 510 µg/mL (≈ 1710 µM) in assay [8]; 4 µg/mL (≈ 13.4 µM) in [9].
Turning to `CCCCCCCCCCCCNC(=O)[C@H](N)Cc1ccccc1`, the MIC in [5] came out at 5 µg/mL (≈ 15 µM); in [6] it was 10 µg/mL (≈ 30.1 µM); in [7], 5 µg/mL (≈ 15 µM); in assay [8] it was 8.3 µg/mL (≈ 25 µM); in [9], 20 µg/mL (≈ 60.1 µM).
As to `COc1c(/C=C/c2ccc(NC(=O)[C@H](CC#N)NC(=O)c3ccc(NC(=O)/C(C)=C/c4ccc(O)cc4)cc3)cc2)ccc(C(=O)Nc2ccc(C(=O)O)c(O)c2OC)c1O`, the MIC in assay [15] was found to be 0.125 µg/mL (≈ 0.151 µM); in assay [16] it was 0.063 µg/mL (≈ 0.0763 µM); in assay [17] it was 0.063 µg/mL (≈ 0.0763 µM); in assay [18] it was 0.5 µg/mL (≈ 0.605 µM).
For the compound `COc1c(NC(=O)c2ccc(-c3cc4ccc(-c5ccc(NC(=O)[C@H](CC#N)NC(=O)c6ccc(NC(=O)/C(C)=C/c7ccc(O)cc7)cc6)cc5)cc4o3)c(OC)c2O)ccc(C(=O)O)c1O`, the MIC in [15] worked out at 1 µg/mL (≈ 1.09 µM); in assay [16] it was 0.125 µg/mL (≈ 0.136 µM); in assay [17], 0.25 µg/mL (≈ 0.273 µM); in [18] it was 1 µg/mL (≈ 1.09 µM).
In the case of `CCCCCCCCNC(=O)[C@@H](N)Cc1ccccc1`, the minimal inhibitory concentration (MIC) turned out to be 39 µg/mL (≈ 141 µM) in [5]; 62.5 µg/mL (≈ 226 µM) in assay [6]; 39 µg/mL (≈ 141 µM) in assay [7]; 78 µg/mL (≈ 282 µM) in assay [8]; 52 µg/mL (≈ 188 µM) in [9].
Turning to `CC(=O)NCCNc1nc(NCC(=O)NCCNc2nc(NCC(=O)NCCNc3nc(NCC(N)=O)nc(N(CCCN)CCCN)n3)nc(N(Cc3ccccc3)Cc3ccccc3)n2)nc(N(CCCN)CCCN)n1`, the MIC in assay [1], in assay [2], in [3] and in [4] was 16 µg/mL (≈ 14.6 µM) each time.
Regarding `CC(=O)NCCNc1nc(NCC(=O)NCCNc2nc(NCC(=O)NCCNc3nc(NCC(=O)NCCNc4nc(NCC(N)=O)nc(N(Cc5ccccc5)Cc5ccccc5)n4)nc(N(CCCN)CCCN)n3)nc(N(Cc3ccccc3)Cc3ccccc3)n2)nc(N(CCCN)CCCN)n1`, the MIC in assay [1], in assay [2], in assay [3] and in [4] was 16 µg/mL (≈ 10.8 µM) each time.
`CCCCCCCCCCNC(=O)[C@@H](N)Cc1ccccc1`: the MIC is 10 µg/mL (≈ 32.8 µM) in assay [5]; 15.6 µg/mL (≈ 51.2 µM) in assay [6]; 13.3 µg/mL (≈ 43.7 µM) in assay [7]; 39 µg/mL (≈ 128 µM) in assay [8]; 20 µg/mL (≈ 65.7 µM) in assay [9].
Regarding `CCCCCCCCCCCCNC(=O)[C@@H](N)C(C)C`, the MIC in assay [5] was 1.67 µg/mL (≈ 5.87 µM); in assay [6], 6.5 µg/mL (≈ 22.8 µM); in assay [7], 3.3 µg/mL (≈ 11.6 µM); in assay [8] it was 4.2 µg/mL (≈ 14.8 µM); in assay [9], 8.3 µg/mL (≈ 29.2 µM).
On to `CC(=O)NCCNc1nc(NCC(N)=O)nc(N(CCCN)CCCN)n1`, for which the MIC is 128 µg/mL (≈ 335 µM) in [1], 128 µg/mL (≈ 335 µM) in assay [2], above 128 µg/mL in assay [3] and above 128 µg/mL in assay [4].
